Laboratory results taken from US20150150851A1, “FORMULATION AND DOSING OF HSP90 INHIBITORY COMPOUNDS” (Synta Pharmaceuticals Corp., priority 2010, published 2015).
Values after ≈ are worked out from the molar mass of the structure shown.

Assay: Equilibrium solubility in polysorbate 80 / PEG 300 mixtures (72 hours, HPLC)
Format: physicochemical
Conditions: organic solvent or mixture, thermodynamic from solid

solubility at 72 h (polysorbate 80 / PEG 300 mixture, 40% PEG 300, 60% polysorbate 80, equilibrated 72 hours): 76.1 mg/mL (≈ 209 mM)
solubility at 72 h (polysorbate 80 / PEG 300 mixture, 45% PEG 300, 55% polysorbate 80, equilibrated 72 hours): 84.7 mg/mL (≈ 232 mM)
solubility at 72 h (polysorbate 80 / PEG 300 mixture, 50% PEG 300, 50% polysorbate 80, equilibrated 72 hours): 96.2 mg/mL (≈ 264 mM)
solubility at 72 h (polysorbate 80 / PEG 300 mixtures, in all three polysorbate 80 / PEG 300 solutions): > 75 mg/mL
Structure (SMILES): CC(C)c1cc(-c2n[nH]c(=O)n2-c2ccc3c(ccn3C)c2)c(O)cc1O [Compound 1, 3-(2,4-dihydroxy-5-isopropyl-phenyl)-4-(1-methyl-indol-5-yl)-5-hydroxy-[1,2,4] triazole]
